Data as given in patent publication US8058427B2, “Coumarin compounds and their use for treating cancer” (National Health Research Institutes, priority 2008, dated 2011).

How the values were obtained:
Type in all cases: cell-based
[1] = test system: Hep G2 (hepatocellular carcinoma); assay: Growth inhibition, methylene blue dye assay, Hep G2; conditions: Homo sapiens, HepG2, Hep G2, 72 h
Description: (§1) Compound 1 was evaluated against 21 human tumor cell lines derived from nine cancer cell types: nasopharyngeal carcinoma (HONE-1, CPT 30, and HONE-cis6), cervical carcinoma (KB, KB-CPT100, KB7D, KB-1036, KB-S15, and KB-vin10), gastric carcinoma (TSGH), breast carcinoma (MCF-7), colorectal carcinoma (HT29), non-small cell lung carcinoma (H460), lymphoma (BJAB and H9), leukemia (CEM and HL 60), and hepatocellular carcinoma (Hep 3B, Hep G2, Huh 7, and Hcc36). […] Compound 140 was tested against the following 15 cell lines: HONE-1, CPT 30, and HONE-cis6, KB, KB-CPT100, KB7D, KB-1036, KB-S 15, and KB-vin10, TSGH, MCF-7, H460, BJAB, H9, and Hep G2. Compound 32 was tested against the following 8 cell lines: HONE-1, KB, TSGH, MCF-7, H460, BJAB, H9, and Hep G2.
(§2) Cells in logarithmic growth phase were cultured at a density of 5000 cells/ml/well in a 24-well plate. Drug-resistant cells were cultured in a medium free of test compounds for 3 days before use. The cells were exposed to various concentrations of a test compound for 72 h. The methylene blue dye assay was used to evaluate the effect of the test compound on cell growth, as has been described in Finlay et al., Anal. Biochem. 1984, 139, 272-277. The IC50 value resulting from 50% inhibition of cell growth was calculated graphically as a comparison with control growth.

BJAB (lymphoma) = assay: Growth inhibition, methylene blue dye assay, BJAB; conditions: Homo sapiens, 72 h
Description: as §1, §2

TSGH (gastric carcinoma) = assay: Growth inhibition, methylene blue dye assay, TSGH; conditions: Homo sapiens, 72 h
Description: as §1, §2

[2] = test system: HONE-1 (nasopharyngeal carcinoma); assay: Growth inhibition, methylene blue dye assay, HONE-1; conditions: Homo sapiens, HONE1, 72 h
Description: as §1, §2

H9 (lymphoma) = assay: Growth inhibition, methylene blue dye assay, H9; conditions: Homo sapiens, H9, 72 h
Description: as §1, §2

human tumor cell lines = assay: Growth inhibition, methylene blue dye assay, panel of tumor cell lines; conditions: most of the tested cell lines, 72 h
Description: as §1, §2

MCF-7 (breast carcinoma) = assay: Growth inhibition, methylene blue dye assay, MCF7; conditions: Homo sapiens, MCF7, 72 h
Description: as §1, §2

KB (cervical carcinoma) = assay: Growth inhibition, methylene blue dye assay, KB; conditions: Homo sapiens, 72 h
Description: as §1, §2

[3] = test system: H460 (non-small cell lung carcinoma); assay: Growth inhibition, methylene blue dye assay, H460; conditions: Homo sapiens, NCI-H460, H460, 72 h
Description: as §1, §2

[4] = test system: Hep 3B (hepatocellular carcinoma); assay: Growth inhibition, methylene blue dye assay, Hep 3B; conditions: Homo sapiens, Hep3B, 72 h
Description: as §1, §2

[5] = test system: KB-1036 (cervical carcinoma); assay: Growth inhibition, methylene blue dye assay, KB-1036; conditions: Homo sapiens; KB-1036, D-501036 driven selection, 72 h
Description: as §1, §2

[6] = test system: HT29 (colorectal carcinoma); assay: Growth inhibition, methylene blue dye assay, HT29; conditions: Homo sapiens, HT-29, HT29, 72 h
Description: as §1, §2

[7] = test system: KB7D (cervical carcinoma); assay: Growth inhibition, methylene blue dye assay, KB7D; conditions: Homo sapiens, VP-16-driven selection, 72 h
Description: as §1, §2

[8] = test system: KB-vin10 (cervical carcinoma); assay: Growth inhibition, methylene blue dye assay, KB-vin10; conditions: Homo sapiens; KB-vin10, vincristine-driven selection, 72 h
Description: as §1, §2

[9] = test system: HONE-cis6 (nasopharyngeal carcinoma); assay: Growth inhibition, methylene blue dye assay, HONE-cis6; conditions: Homo sapiens; HONE-cis6, drug-resistant, cisplatin-driven selection, 72 h
Description: as §1, §2

CEM (leukemia) = assay: Growth inhibition, methylene blue dye assay, CEM; conditions: Homo sapiens, 72 h
Description: as §1, §2

[10] = test system: KB-S15 (cervical carcinoma); assay: Growth inhibition, methylene blue dye assay, KB-S15; conditions: Homo sapiens; KB-S15, drug-resistant, paclitaxel-driven selection, 72 h
Description: as §1, §2

[11] = test system: Hcc36 (hepatocellular carcinoma); assay: Growth inhibition, methylene blue dye assay, Hcc36; conditions: Homo sapiens, Hcc36, 72 h
Description: as §1, §2

[12] = test system: KB-CPT100 (cervical carcinoma); assay: Growth inhibition, methylene blue dye assay, KB-CPT100; conditions: Homo sapiens, KBCPT100; KB-CPT100, drug-resistant, camptothecin-driven selection, 72 h
Description: as §1, §2

[13] = test system: Huh 7 (hepatocellular carcinoma); assay: Growth inhibition, methylene blue dye assay, Huh 7; conditions: Homo sapiens, Huh 7, 72 h
Description: as §1, §2

HL 60 (leukemia) = assay: Growth inhibition, methylene blue dye assay, HL60; conditions: Homo sapiens, HL60, 72 h
Description: as §1, §2

[14] = test system: CPT30 (nasopharyngeal carcinoma); assay: Growth inhibition, methylene blue dye assay, CPT30; conditions: Homo sapiens; CPT30, drug-resistant, camptothecin-driven selection, 72 h
Description: as §1, §2

[15] = test system: Human cervical carcinoma KB cells; assay: Growth inhibition assay, KB cells (MTS); conditions: 72 h, read-out: IC50 (concentration causing 50% cell growth inhibition)
Description: Anticancer activities of the compounds of this invention were evaluated using a growth inhibition assay described in Kuo et al., Cancer Res. 2004, 64(13), 4621-4628.
Human cervical carcinoma KB cells were maintained in plastic dishes in DMEM medium supplemented with 10% fetal bovine serum. For in vitro treatment, tumor cells were seeded in […] of culture medium/well in 96-well plates to a final cell density of 6×10^3 cell/mL and incubated in a CO2 incubator at 37° C. for 24 h. The cells were treated with at least five different concentrations of a test compound, and incubated in a CO2 incubator at 37° C. for 72 h. The number of viable cells was estimated using MTS assay and absorbance was measured at 490 nm. For each test compound, dose-response curves were measured with at least five different drug concentrations, and the concentration causing 50% cell growth inhibition (IC50) compared with the control was calculated.

**Q.** `COc1ccc(C(=O)c2oc3ccc4c(C)cc(=O)oc4c3c2-c2ccccc2)cc1` [Compound 32] was tested. Which IC50 [1] did it give?
**A.** 5500 nM

**Q.** And the IC50 (BJAB (lymphoma))?
**A.** 45 nM

**Q.** And the IC50 (TSGH (gastric carcinoma))?
**A.** 150 nM

**Q.** And the IC50 [2]?
**A.** 55 nM

**Q.** And the IC50 (H9 (lymphoma))?
**A.** 124 nM

**Q.** What about the IC50 (human tumor cell lines) of the same compound?
**A.** < 150 nM

**Q.** And the IC50 (MCF-7 (breast carcinoma))?
**A.** 150 nM

**Q.** And the IC50 (KB (cervical carcinoma))?
**A.** 41 nM

**Q.** And the IC50 [3]?
**A.** 40 nM

**Q.** Which results are given for `Cc1cc(=O)oc2c1ccc1oc(C(=O)c3ccccc3)c(-c3ccccc3)c12` [Compound 1, 8-benzoyl-4-methyl-9-phenyl-furo[2,3-h]chromen-2-one]?
**A.** IC50 [4]: 35000 nM; IC50 [5]: 4 nM; IC50 [6]: 7 nM; IC50 [7]: 0.8 nM; IC50 [8]: 2.5 nM; IC50 [9]: 4.5 nM; IC50 (CEM (leukemia)): 1000 nM; IC50 [10]: 0.5 nM; IC50 [1]: 3500 nM; IC50 (BJAB (lymphoma)): 110 nM; IC50 (TSGH (gastric carcinoma)): 17 nM; IC50 [2]: 2 nM; IC50 [11]: 10800 nM; IC50 [12]: 6.25 nM; IC50 [13]: 26700 nM; IC50 (HL 60 (leukemia)): 1000 nM; IC50 [14]: 8.5 nM; IC50 (H9 (lymphoma)): 3.5 nM; IC50 (human tumor cell lines): < 10 nM; IC50 (MCF-7 (breast carcinoma)): 4 nM; IC50 (KB (cervical carcinoma)): 1.3 to 1.8 nM; IC50 [3]: 0.5 nM

**Q.** Which results are given for `Cc1cc(=O)oc2c1ccc1oc(C(=O)c3ccccc3)c(-c3ccc(Br)cc3)c12` [Compound 140]?
**A.** IC50 [5]: 13 nM; IC50 [7]: 8 nM; IC50 [8]: 10 nM; IC50 [9]: 10 nM; IC50 [10]: 10 nM; IC50 [1]: 2600 nM; IC50 (BJAB (lymphoma)): 60 nM; IC50 (TSGH (gastric carcinoma)): 41 nM; IC50 [2]: 3 nM; IC50 [12]: 9 nM; IC50 [14]: 10.5 nM; IC50 (H9 (lymphoma)): 20 nM; IC50 (human tumor cell lines): < 10 nM; IC50 (MCF-7 (breast carcinoma)): 13 nM; IC50 (KB (cervical carcinoma)): 7.7 nM; IC50 [3]: 3 nM

**Q.** With `Cc1cc(=O)oc2c1ccc1oc(C(=O)c3ccc(Br)cc3)c(-c3ccc(Br)cc3)c12` [Compound 211] as the compound, how does the IC50 [15] read?
**A.** 1000 to 10000 nM

**Q.** Which IC50 [15] does the source give for `Cc1cc(=O)oc2c1ccc1oc(C(=O)c3cc(Cl)sc3Cl)c(-c3ccccc3)c12` [Compound 97] here?
**A.** 1000 to 10000 nM

**Q.** With `Cc1cc(=O)oc2c1ccc1sc(C(=O)c3ccccc3)c(-c3ccccc3)c12` [Compound 26] as the compound, how does the IC50 [15] read?
**A.** 101 to 999 nM

**Q.** For `CCOC(=O)c1cc(C(=O)c2oc3ccc4c(C)cc(=O)oc4c3c2-c2ccccc2)on1` [Compound 110], which IC50 [15] is on record?
**A.** 1000 to 10000 nM

**Q.** Which IC50 [15] does the source give for `Cc1cc(=O)oc2c1ccc1oc(C(=O)c3cc(F)ccc3F)c(-c3ccc(F)cc3)c12` [Compound 221] here?
**A.** 101 to 999 nM

**Q.** `COc1ccc(C(=O)c2oc3ccc4c(C)cc(=O)oc4c3c2-c2ccc(Cl)cc2)cc1` [Compound 223] was tested. Which IC50 [15] did it give?
**A.** 1000 to 10000 nM

**Q.** `Cc1cc(=O)oc2c1ccc1oc(C(=O)c3cccc(OCCN[C@@]45C[C@@H]6C[C@@H](C[C@@](O)(C6)C4)C5)c3)c(-c3ccccc3)c12` [Compound 183] was tested. Which IC50 [15] did it give?
**A.** 101 to 999 nM

**Q.** `Cc1cc(=O)oc2c1ccc1oc(C(=O)c3cc(-c4ccc(Cl)cc4)no3)c(-c3ccccc3)c12` [Compound 112] was tested. Which IC50 [15] did it give?
**A.** 1000 to 10000 nM

**Q.** `Cc1cc(=O)oc2c1ccc1oc(Cc3ccccc3)c(-c3ccccc3)c12` [Compound 173] was tested. Which IC50 [15] did it give?
**A.** 101 to 999 nM

**Q.** With `CCN(CCO)CCCOc1cccc(C(=O)c2oc3ccc4c(C)cc(=O)oc4c3c2-c2ccccc2)c1` [Compound 251] as the compound, how does the IC50 [15] read?
**A.** 101 to 999 nM

**Q.** With `CCCOc1cccc(C(=O)c2oc3ccc4c(C)cc(=O)oc4c3c2-c2ccc(Br)cc2)c1` [Compound 253] as the compound, how does the IC50 [15] read?
**A.** 101 to 999 nM

**Q.** Which IC50 [15] does the source give for `Cc1cc(=O)oc2c1ccc1oc(C(=O)c3cccc(OCCO)c3)c(-c3ccccc3)c12` [Compound 184] here?
**A.** 101 to 999 nM

**Q.** How did the IC50 [15] turn out when `Cc1cc(=O)oc2c1ccc1oc(C(=O)c3ccc([N+](=O)[O-])cc3)c(-c3ccccc3)c12` [Compound 51] was run?
**A.** 101 to 999 nM

**Q.** With `Cc1cc(=O)oc2c1ccc1oc(C(=O)c3ccccc3)c(-c3ccccc3Br)c12` [Compound 138] as the compound, how does the IC50 [15] read?
**A.** 101 to 999 nM

**Q.** With `Cc1cc(=O)oc2c1ccc1oc(C(=O)c3ccccc3)c(/C=C/c3ccccc3)c12` [Compound 161] as the compound, how does the IC50 [15] read?
**A.** 101 to 999 nM
